Test results from patent US20230088704A1, “A PHARMACEUTICAL COMBINATION FOR THE TREATMENT OF A CANCER” (ABILITY PHARMACEUTICALS S.L., priority 2020, published 2023).
Like-named read-outs stand apart in the source and are kept apart here.

Tests used:
Ishikawa cells [1] = type: in vivo; conditions: ABTL0812 oral 120 mg/kg/day; Doxorubicin 5 mg/kg i.p. once a week
Method: Methods: Mice were injected with 4×10^6 Ishikawa cells in one flank to induce tumor formation. […] ABTL0812 was administered by the oral route at 120 mg/kg/day. Doxorubicin 5 mg/kg was administered intra-peritoneally once a week. Tumor volume and body weight were monitored 3 times a week.

T98G cells = test: Human glioblastoma subcutaneous xenograft, ABTL0812 with radiotherapy; type: in vivo, nude mice
Method: (§1) Methods: Mice were injected subcutaneously with 1×10^6 U87MG or T98G cells in each flank to induce tumor formation. […] ABTL0812 was administered orally at 240 mg/kg 5 days/week and radiotherapy as single dose of 4 Gy administered at day 3.

U87MG cells = test: as above; type: in vivo, nude mice
Method: as §1

Ishikawa cells [2] = test: Human endometrial cancer xenograft, ABTL0812 with bevacizumab; type: in vivo; conditions: ABTL0812 oral 120 mg/kg/day; Bevacizumab ip 100 μg/dose every four days
Method: Methods: Mice were injected with 4×10^6 Ishikawa cells in one flank to induce tumor formation. […] Bevacizumab was administered ip at 100 μg/dose, every four days up to four administration. Tumor volume and body weight were monitored 3 times a week.

[3] = system: THP-1 human macrophage cells; test: M1/M2 macrophage polarization, marker mRNA by RT-qPCR; type: cell-based
Method: Methods: THP-1 monocytes growing in suspension are differentiated to macrophages by incubation with PMA for 24 hours, inducing their attachment to the plates. Once THP-1 are differentiated to macrophages, these are polarized to M1 by incubation with LPS for 6 or 24 hours in the presence of ABTL0812 (50 or 100 μM). In parallel, differentiated macrophages are polarized to M2 by incubation with IL-4 and IL-13 for 24 hours in the presence of ABTL0812 (50 μM). Then, polarized macrophages are lysed, total RNA extracted, retrotranscribed to cDNA and mRNA levels of IL1β, TNFα (M1 markers) and […] (M2 marker) were evaluated by RT-qPCR using specific probes.

[4] = system: PMA-activated THP-1 macrophages; test: Conditioned media of ABTL0812-treated MiaPaca2 cells on THP-1 macrophages; type: cell-based, human; conditions: conditioned media from MiaPaca2 cells treated with ABTL0812 40 μM 72 hours
Method: Methods: MiaPaca2 cells were incubated with 40 μM of ABTL0812 during 72 hours and conditioned media (RPMI) of these ABTL0812-treated cells were collected. In parallel, human THP-1 cells were differentiated to macrophages by incubation with PMA (Phorbol myristate acetate) for 24 hours, inducing their attachment to the plates. Then, conditioned media from ABTL0812-treated MiaPaca2 cells was transferred to PMA-activated THP-1 macrophages and incubated during 24 hours for RT-qPCR analysis of M1 phenotype markers IL-1β and TNF-α, or during 48 hours for cell viability studies using the MTT assay. For M1 marker analysis, cells were collected, RNA extracted, retrotranscribed to cDNA and mRNA levels of IL-1β and TNF-α assessed by RT-qPCR.

[5] = system: Human pancreatic cancer cells; test: Secretome of pancreatic cancer cells, chemokine antibody array; type: cell-based; conditions: ABTL0812 100 μM; 24 hours
Method: Methods: Human pancreatic cancer cells were treated with ABTL0812 at 100 μM for 24 hours and culture media was collected for its incubation using the RayBio C-Series Human Chemokine Antibody Array C1 (RayBiotec). Culture media was incubated with a membrane containing antibodies against 38 different chemokines. Afterwards, the membrane was incubated with secondary antibodies and further developed using HRP substrate.

[6] = system: human immortalized THP-1 and human primary macrophage cells; test: M1/M2 polarization of immortalized and primary macrophages, RT-qPCR; type: cell-based
Method: Methods: THP-1 monocytes growing in suspension were differentiated to macrophages by incubation with PMA for 24 hours, inducing their attachment to the plates. Monocytes were differentiated to macrophages incubating with M-CSF1 at 20 ng/mL for 7 days. In parallel, whole blood was collected from healthy donors, and circulating monocytes were purified using immunomagnetic separation. Monocytes were selected using anti-CD14 antibodies bound to magnetic beads, which were retained in the magnetic column and further eluted for culturing in vitro. After obtaining activated macrophages (immortalized and primary), these were polarized to M1 by incubation with LPS+IFNγ for 6 hours in the presence of ABTL0812 at 100 μM. In parallel, differentiated macrophages were polarized to M2 by incubation with IL-4 and IL-13 for 24 hours in the presence of ABTL0812 (100 μM). Afterwards, polarized macrophages were lysed, total RNA extracted, retrotranscribed to cDNA and mRNA levels of IL1β, TNFα (M1 markers) and IL-10 (M2 marker) were evaluated by RT-qPCR using specific probes.

[7] = system: Ishikawa endometrial cancer cells; test: Co-culture of ABTL0812-treated cancer cells with activated T cells, MTT; type: cell-based, human; conditions: ABTL0812 50 μM 6 hours, then co-culture with activated T lymphocytes 24 hours
Method: Methods: human PBMCs were purified from peripheral blood of healthy donors using Ficoll and cultured in vitro. Human T cells were activated by incubation with IL-2 and CD3 and CD28 antibodies for 10 days. In parallel, Ishikawa endometrial cancer cells were treated with ABTL0812 at 50 μM for 6 hours and then co-cultured with activated T lymphocytes for 24 hours. Then, cell viability was assessed by the MTT assay. Untreated Ishikawa cells were used as controls.

H157 cells = test: PDL1 protein in xenograft tumors by western blot; type: in vivo, nude mice; conditions: ABTL0812 oral 120 mg/kg/day for three weeks
Method: (§2) Methods: Mice were injected with 4×10^6 H157 cells or 5×10^6 MiaPAca2 cells in one flank to induce tumor formation. […] After treatment, animals were sacrificed, tumor extracted and protein levels of PDL1 in cancer cells analyzed by western blot.

MiaPaca2 cells = test: PDL1 protein in xenograft tumors by western blot; type: in vivo, nude mice; conditions: ABTL0812 oral 120 mg/kg/day for three weeks
Method: as §2

[8] = ABTL0812 oral 240 mg/kg 5 days/week
[9] = ABTL0812 oral 240 mg/kg 5 days/week + radiotherapy single dose 4 Gy at day 3
[10] = differentiated macrophages without polarizing, ABTL0812 alone
[11] = macrophages polarized to M1 (LPS 6 or 24 hours), ABTL0812 50 or 100 μM
[12] = macrophages polarized to M1 (LPS+IFNγ 6 hours), ABTL0812 100 μM

CCCCC/C=C\C/C=C\CCCCCCC(O)C(=O)O (stereo not drawn) [ABTL0812, COOH—CHOH—(CH2)6—(CH═CH—CH2)2—(CH2)3—CH3]
tumor volume (Ishikawa cells [1]): significantly reduced tumor volume
growth of subcutaneous tumors, single agent (T98G cells; [8]): significantly decreased the growth of glioblastoma subcutaneous tumors
growth of subcutaneous tumors, combination with radiotherapy (T98G cells; [9]): significantly more efficacious than ABTL0812 or radiotherapy as single treatments
growth of subcutaneous tumors, single agent (U87MG cells; [8]): significantly decreased the growth of glioblastoma subcutaneous tumors
growth of subcutaneous tumors, combination with radiotherapy (U87MG cells; [9]): significantly more efficacious than ABTL0812 or radiotherapy as single treatments
tumor volume (Ishikawa cells [2]): significantly reduced tumor volume
expression of IL-1β [3, 10]: significantly induce the expression of IL-1β
IL-1β mRNA levels [3, 11]: significantly potentiates
TNFα mRNA levels [3, 11]: significantly potentiates
IL-10 mRNA levels ([3]; macrophages polarized to M2 (IL-4 and IL-13, 24 hours), ABTL0812 50 μM): significantly suppresses
gene expression of IL-1β ([4]; 24 hours on macrophages): significantly increasing the gene expression
gene expression of TNF-α ([4]; 24 hours on macrophages): significantly increasing the gene expression
THP-1 cell viability (MTT) ([4]; 48 hours on macrophages): significantly increasing THP-1 cell viability
secreted CCL5 [5]: decrease
secreted CXCL6 [5]: decrease
secreted CXCL16 [5]: decrease
secreted angiogenin [5]: decrease
expression of IL-1β [6, 10]: significantly induces the expression of IL-1β
IL-1β mRNA levels [6, 12]: significantly potentiates
TNFα mRNA levels [6, 12]: significantly potentiates
IL-10 mRNA levels ([6]; macrophages polarized to M2 (IL-4 and IL-13, 24 hours), ABTL0812 100 μM): significantly suppresses
cytotoxic effect of activated T cells on cancer cells [7]: potentiates the cytotoxic effect of activated T cells
protein levels of PDL1 in tumor (H157 cells): Increases protein levels of PDL1 in tumor in vivo
protein levels of PDL1 in tumor (MiaPaca2 cells): Increases protein levels of PDL1 in tumor in vivo
